Experimental data taken from patent US20140005164A1, “WNT PATHWAY ANTAGONISTS” (Siena Biotech S.p.A., priority 2011, published 2014).

Tested on: Wnt/β-catenin pathway
Assay: Wnt reporter assay (TCF-Luciferase, Firefly) in DBTRG-05MG cells
Format: cell-based
Settings: Homo sapiens, 24 h, read-out: IC50 value in the reporter assay
Procedure: Three copies of a 4×TCF responsive elements were cloned into the pcDNA3.1/Zeo(+) vector (Invitrogen) after deletion of the constitutive CMV promoter and the insertion of the Firefly Luciferase from Promega (phFL-TK) to measure the activity of the Wnt/β-catenin pathway. The resulting plasmid was sequenced for quality control.
Cells were grown in 20 μg/ml Zeocin and 20 μg/ml Zeocin plus 30 μg/ml Hygromicin respectively. The cells were plated at a density of 6500 cells/well in poly-D-lysine pre-treated 96 well-plates.
36 hours after plating cells were incubated with 8-points dilutions compound (0.6% DMSO (v/v)). Each compound was tested in triplicate in single plate. Luciferase detection was done with Dual-Luciferase Reporter Assay System (Promega). 24 hours after compound addition, media was removed and 30 μl of 1× lysis buffer was added to each well for 30 minutes. To each well 45 μl of Dual-Glo Luciferase reagent (Promega) were added and after 1 second delay Luciferase was detected for 1 second using Mithras LB940 instrument. After Firefly luciferase quantification 45 μl of Dual Stop & Glo reagent (Promega) were added to each well and […] Renilla was detected using the same parameters described before.
Data were expressed as % of control for Firefly and Renilla luciferase independently; values were calculated using XLFit version 4.2, with a four parameters sigmoid function (XLFit model 205).

| Structure (SMILES) | IC50 [nM] |
| --- | --- |
| COCCN(C)c1ncc2c(n1)n(C[C@H]1CC[C@H](C(=O)Nc3ccncc3)CC1)c(=O)n2C [Example 8, Trans-4-{2-[(2-Methoxy-ethyl)-methyl-amino]-7-methyl-8-oxo-7,8-dihydro-purin-9-ylmethyl}-cyclohexanecarboxylic acid pyridine-4-ylamide] | 35 to 23000 |
| CN(C)CCN(C)c1ccc2c(n1)n(C[C@H]1CC[C@H](C(=O)Nc3ccncc3)CC1)c(=O)n2C [Example 5, Trans-4-{5-[(2-Dimethylamino-ethyl)-methyl-amino]-1-methyl-2-oxo-1,2-dihydro-imidazo[4,5-b]pyridin-3-ylmethyl}-cyclohexanecarboxylic acid pyridin-4-ylamide] | 35 to 23000 |

Same assay, conditions: Homo sapiens, TCF-Luciferase (Firefly) read out, 24 hours after compound addition, range given with mixed units nM and μM, read-out: IC50 value in the reporter assay

| IC50 [nM] | Structure (SMILES) |
| --- | --- |
| 35 to 23000 | COC/C=C/c1ccc2c(c1)n(C[C@H]1CC[C@H](C(=O)Nc3ccncc3)CC1)c(=O)n2C [Example 113] |
| 35 to 23000 | COc1ccc2c(c1)n(C[C@H]1CC[C@H](c3nnc(-c4ccncn4)o3)CC1)c(=O)n2C [Example 117] |
| 35 to 23000 | Cn1c(=O)n(C[C@H]2CC[C@H](C(=O)Nc3ccncc3)CC2)c2nc(OCc3ccccn3)ccc21 [Example 156] |
| 35 to 23000 | Cn1ccc(N2CCN(C(=O)[C@H]3CC[C@H](Cn4c(=O)n(C)c5ccc(=O)[nH]c54)CC3)CC2)n1 [Example 134] |
| 35 to 23000 | COc1ccc2c(c1)n(C[C@H]1CC[C@H](c3nnc(-c4ccncc4F)o3)CC1)c(=O)n2C [Example 109] |
| 35 to 23000 | COc1ccc2c(c1)n(C[C@H]1CC[C@H](C(=O)Nc3cncnc3)CC1)c(=O)n2C [Example 103] |
| 35 to 23000 | COc1ccc2c(c1)n(C[C@H]1CC[C@H](C(=O)N3[C@H](C)CCC[C@@H]3C)CC1)c(=O)n2C [Example 59] |
| 35 to 23000 | COc1ccc2c(c1)n(C[C@H]1CC[C@H](C(=O)N3CCN(c4ccncc4)CC3)CC1)c(=O)n2C [Example 76] |
| 35 to 23000 | Cn1c(=O)n(C[C@H]2CC[C@H](C(=O)N3CCN(c4nccs4)CC3)CC2)c2cc(C(F)(F)F)ccc21 [Example 24] |
| 35 to 23000 | COc1ccc2c(c1)n(C[C@H]1CC[C@H](C(=O)Nc3ccnc(N4CCOCC4)c3)CC1)c(=O)n2C [Example 50] |
| 35 to 23000 | COc1ccc2c(c1)n(C[C@H]1CC[C@H](C(=O)N3CCN(c4ccc(C(F)(F)F)nc4)CC3)CC1)c(=O)n2C [Example 90] |
| 35 to 23000 | Cc1cc(NC(=O)[C@H]2CC[C@H](Cn3c(=O)n(C)c4c(Cl)cccc43)CC2)ccn1 [Example 49] |
| 35 to 23000 | Cn1c(=O)n(C[C@H]2CC[C@H](C(=O)Nc3ccncc3)CC2)c2nc(NCc3cccnc3)ccc21 [Example 126] |
| 35 to 23000 | COc1ccc2c(c1)n(C[C@H]1CC[C@H](C(=O)N3CCN(c4cnccn4)CC3)CC1)c(=O)n2C [Example 60] |
| 35 to 23000 | COc1ccc2c(c1)n(C[C@H]1CC[C@H](C(=O)N3CCN(c4cnn(C)c4)CC3)CC1)c(=O)n2C [Example 141] |
| 35 to 23000 | COc1ccc2c(c1)n(C[C@H]1CC[C@H](c3noc(-c4cccnc4)n3)CC1)c(=O)n2C [Example 172] |
| 35 to 23000 | COc1cc2c(cc1F)n(C)c(=O)n2C[C@H]1CC[C@H](C(=O)Nc2ccncn2)CC1 [Example 159] |
| 35 to 23000 | COc1ccc2c(c1)n(C[C@H]1CC[C@H](C(=O)N3CCSCC3)CC1)c(=O)n2C [Example 62] |
| 35 to 23000 | COc1ccc2c(c1)n(C[C@H]1CC[C@H](C(=O)N3CCN(c4cc(C)no4)CC3)CC1)c(=O)n2C [Example 144] |
| 35 to 23000 | COc1ccc2c(c1)n(C[C@H]1CC[C@H](c3nnc(-c4ccnnc4)o3)CC1)c(=O)n2C [Example 164] |
| 35 to 23000 | Cn1c(=O)n(C[C@H]2CC[C@H](C(=O)Nc3ccnc(N4CCOCC4)c3)CC2)c2cc(Cl)ccc21 [Example 41] |
| 35 to 23000 | COc1ccc2c(c1)n(C[C@H]1CC[C@H](c3nnc(-c4cn(C)nc4C(F)(F)F)o3)CC1)c(=O)n2C [Example 11, 5-Methoxy-1-methyl-3-{trans 4-[5-(1-methyl-3-trifluoromethyl-1H-pyrazol-4-yl)-[1,3,4]oxadiazol-2-yl]-cyclohexylmethyl}-1,3-dihydro-benzoimidazol-2-one] |
| 35 to 23000 | Cn1c(=O)n(C[C@H]2CC[C@H](C(=O)Nc3ccncc3)CC2)c2cc(OC(F)F)ccc21 [Example 165] |
| 35 to 23000 | COc1ccc2c(c1)n(C[C@H]1CC[C@H](C(=O)N3CCN(c4ccc(F)nc4)CC3)CC1)c(=O)n2C [Example 89] |
| 35 to 23000 | COc1ccc2c(c1)n(C[C@H]1CC[C@H](C(=O)Nc3cccc4oc(C5CC5)nc34)CC1)c(=O)n2C [Example 67] |
| 35 to 23000 | COc1cc2c(cc1F)n(C)c(=O)n2C[C@H]1CC[C@H](C(=O)N2CCOCC2)CC1 [Example 160] |
| 35 to 23000 | COc1ccc2c(c1)n(C[C@H]1CC[C@H](C(=O)Nc3ccc(-c4nnco4)cc3)CC1)c(=O)n2C [Example 66] |
| 35 to 23000 | Cn1c(=O)n(C[C@H]2CC[C@H](C(=O)N3CCN(c4nccs4)CC3)CC2)c2cccc(Cl)c21 [Example 56] |

| IC50 [nM] | Structure (SMILES) |
| --- | --- |
| 35 to 23000 | COc1ccc2c(c1)n(C[C@H]1CC[C@H](C(=O)Nc3ccnc(C)c3)CC1)c(=O)n2C [Example 33] |
| 35 to 23000 | COCCN(C)c1ncccc1NC(=O)[C@H]1CC[C@H](Cn2c(=O)n(C)c3ccc(OC)cc32)CC1 [Example 45] |
| 35 to 23000 | COc1cc2c(cc1F)n(C)c(=O)n2C[C@H]1CC[C@H](C(=O)Nc2ccnnc2)CC1 [Example 169] |
| 35 to 23000 | CCC(=O)CN1CCN(C(=O)[C@H]2CC[C@H](Cn3c(=O)n(C)c4ccc(OC)cc43)CC2)CC1=O [Example 7, 5-Methoxy-1-methyl-3-{trans-4-[3-oxo-4-(2-oxo-butyl)-piperazine-1-carbonyl]-cyclohexylmethyl}-1,3-dihydro-benzoimidazol-2-one] |
| 35 to 23000 | COc1ccc2c(c1)n(C[C@H]1CC[C@H](C(=O)N3CCN(c4cccc(OC)n4)CC3)CC1)c(=O)n2C [Example 65] |
| 35 to 23000 | COCCOc1cc(NC(=O)[C@H]2CC[C@H](Cn3c(=O)n(C)c4c(Cl)cccc43)CC2)ccn1 [Example 42] |
| 35 to 23000 | Cn1c(=O)n(C[C@H]2CC[C@H](C(=O)Nc3ccnc(N4CCOCC4)c3)CC2)c2cccc(Cl)c21 [Example 43] |
| 35 to 23000 | Cn1c(=O)n(C[C@H]2CC[C@H](C(=O)Nc3ccncc3)CC2)c2cc(OCCF)ccc21 [Example 137] |
| 35 to 23000 | COCCNc1ccc2c(c1)n(C[C@H]1CC[C@H](C(=O)N3CCN(C(C)=O)CC3)CC1)c(=O)n2C [Example 15, 3-[trans-4-(4-Acetyl-piperazine-1-carbonyl)-cyclohexylmethyl]-5-(2-methoxy-ethylamino)-1-methyl-1,3-dihydro-benzoimidazol-2-one] |
| 35 to 23000 | COc1ccc2c(c1)n(C[C@H]1CC[C@H](c3nnc(-c4cccnc4)o3)CC1)c(=O)n2C [Example 96] |
| 35 to 23000 | Cn1cc(C2=CCN(C(=O)[C@H]3CC[C@H](Cn4c(=O)n(C)c5ccc(=O)[nH]c54)CC3)CC2)cn1 [Example 135] |
| 35 to 23000 | COc1ccc2c(c1)n(C[C@H]1CC[C@H](C(=O)N3CCN(C(=O)[C@@H]4CCC(=O)O4)CC3)CC1)c(=O)n2C [Example 74] |
| 35 to 23000 | COc1ccc2c(c1)n(C[C@H]1CC[C@H](c3nnc(-c4csc(C)n4)o3)CC1)c(=O)n2C [Example 99] |
| 35 to 23000 | COc1ccc2c(c1)n(C[C@H]1CC[C@H](C(=O)N3CCC(F)(F)CC3)CC1)c(=O)n2C [Example 35] |
| 35 to 23000 | CONC(=O)C1CCN(C(=O)[C@H]2CC[C@H](Cn3c(=O)n(C)c4ccc(OC)cc43)CC2)CC1 [Example 85] |
| 35 to 23000 | Cn1c(=O)n(C[C@H]2CC[C@H](C(=O)N3CCN(c4ccncc4)CC3)CC2)c2cc(C#N)ccc21 [Example 123] |
| 35 to 23000 | Cn1c(=O)n(C[C@H]2CC[C@H](C(=O)Nc3ccncc3)CC2)c2cc(C3CC3)ccc21 [Example 69] |
| 35 to 23000 | COc1ccc2c(c1)n(C[C@H]1CC[C@H](C(=O)N3CCNC(=O)C3)CC1)c(=O)n2C [Example 105] |
| 35 to 23000 | Cn1c(=O)n(C[C@H]2CC[C@H](c3nnc(-c4cccnc4)o3)CC2)c2cc(C#N)ccc21 [Example 124] |
| 35 to 23000 | COc1ccc2c(c1)n(C[C@H]1CC[C@H](C(=O)N3CCN(c4ncc(Br)cn4)CC3)CC1)c(=O)n2C [Example 80] |
| 35 to 23000 | COc1cc2c(cc1F)n(C)c(=O)n2C[C@H]1CC[C@H](C(=O)N2CCN(c3ncccn3)CC2)CC1 [Example 178] |
| 35 to 23000 | COc1ccc2c(c1)n(C[C@H]1CC[C@H](C(=O)N3CCN(C(=O)[C@H]4CCC(=O)O4)CC3)CC1)c(=O)n2C [Example 75] |
| 35 to 23000 | COc1ccc2c(c1)n(C[C@H]1CC[C@H](c3nnc(C4CCOCC4)o3)CC1)c(=O)n2C [Example 145] |
| 35 to 23000 | COc1ccc2c(c1)n(C[C@H]1CC[C@H](C(=O)N3CC4(COC4)C3)CC1)c(=O)n2C [Example 95] |
| 35 to 23000 | Cn1c(=O)n(C[C@H]2CC[C@H](C(=O)Nc3ccncc3)CC2)c2[nH]c(=O)ccc21 [Example 139] |
| 35 to 23000 | Cn1c(=O)n(C[C@H]2CC[C@H](C(=O)N3CCN(c4nccs4)CC3)CC2)c2ccc(Cl)cc21 [Example 54] |
| 35 to 23000 | Cn1cc(C2=CCN(C(=O)[C@H]3CC[C@H](Cn4c(=O)n(C)c5ccc(OC(F)F)cc54)CC3)CC2)cn1 [Example 166] |
